Test results from patent US20230103330A1, “MECHANISTIC BIOMARKER FOR PREDICTING THE SURVIVAL OF PANCREATIC CANCER PATIENTS” (The Regents of the University of California, priority 2020, published 2023).

How the values were obtained:
[1] = target: T1, PKCβII deleted pseudosubstrate (Rattus norvegicus, UniProt P68403, DEL19-36); assay: Immunoblot of PKC priming phosphorylations after phosphatase inhibitor; assay type: cell-based; settings: COS-7 cells, 20 minutes prior to lysis
T1 construct: expressed in transfected cells; host or cells: COS-7
T1 sequence (P68403 with tags, fused parts or gaps isoform P68403-2 DEL19-36): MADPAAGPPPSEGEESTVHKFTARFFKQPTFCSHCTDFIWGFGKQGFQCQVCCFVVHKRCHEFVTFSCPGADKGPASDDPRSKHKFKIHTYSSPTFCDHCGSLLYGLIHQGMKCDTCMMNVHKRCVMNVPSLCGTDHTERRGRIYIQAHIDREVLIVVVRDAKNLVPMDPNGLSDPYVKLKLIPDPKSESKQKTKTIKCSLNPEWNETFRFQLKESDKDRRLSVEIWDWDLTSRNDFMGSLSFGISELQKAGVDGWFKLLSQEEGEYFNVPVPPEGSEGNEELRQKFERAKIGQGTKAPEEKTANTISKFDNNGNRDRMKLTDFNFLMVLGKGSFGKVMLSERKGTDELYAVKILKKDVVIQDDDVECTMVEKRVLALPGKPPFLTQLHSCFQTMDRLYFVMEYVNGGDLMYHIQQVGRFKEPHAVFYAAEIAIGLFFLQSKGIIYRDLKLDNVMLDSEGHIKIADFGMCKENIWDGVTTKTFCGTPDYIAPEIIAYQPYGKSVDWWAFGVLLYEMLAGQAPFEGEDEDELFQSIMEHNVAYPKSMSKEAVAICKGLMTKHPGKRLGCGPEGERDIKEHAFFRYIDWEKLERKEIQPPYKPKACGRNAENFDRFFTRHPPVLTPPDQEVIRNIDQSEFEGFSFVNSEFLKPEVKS
Protocol: FIG. 8. PKC APS Phosphorylation Is Not Regulated by a Calyculin-Sensitive Phosphatase. Western blot of lysates from COS-7 cells expressing RFP-tagged PKCβII wild-type (WT) or deleted pseudosubstrate (APS) and treated with DMSO (−) or Calyculin A (Cal, 100pM) and Go6976 (6pM) for 20 minutes prior to lysis. Immunoblots were probed with PKC phospho-specific antibodies against the activation loop (pThr^500), turn motif (pThr” ^1), or hydrophobic motif ([…]), total overexpressed PKC (HA), or phospho-serine substrate (pSer) as a positive control for Calyculin A.
Cells were lysed in PPHB: 50 mM NaPO4 (pH 7.5), 1% Triton X-100, 20 mM NaF, 1 mM Na4P207, 100 mM NaCl, 2 mM EDTA, 2 mM EGTA, 1 mM Na3VO4, 1 mM PMSF, […] leupeptin, 1 mM DTT, and […]. Phlpp1+/+ and Ph/pp1-/−MEFs were lysed in 50 mM Tris (pH 7.4), 1% Triton X-100, 50 mM NaF, 10 mM Na4P207, 100 mM NaCl, 5 mM EDTA, 1 mM Na3VO4, 1 mM PMSF, […] leupeptin, and […]. Triton-soluble fractions were analyzed by SDS-PAGE on 7% big gels to observe phosphorylation shift, transfer to PVDF membrane (Biorad), and western blotting via chemiluminescence SuperSignal West reagent (Thermo Fisher) on a FluorChem Q imaging system (ProteinSimple). In western blots, the asterisk (*) denotes the position of mature, phosphorylated PKC; whereas, the dash (−) indicates the position of unphosphorylated PKC. […]

PKCβII = target: T2, PKCβII (Rattus norvegicus, UniProt P68403); assay: C kinase activity reporter (CKAR) FRET assay of cellular PKC activity; assay type: cell-based; settings: for activation of WT PKCa and PKCβII (CKAR): COS7 cells, agonist treatment
T2 construct: expressed in transfected cells; host or cells: COS7
T2 sequence (P68403 1-673 isoform P68403-2): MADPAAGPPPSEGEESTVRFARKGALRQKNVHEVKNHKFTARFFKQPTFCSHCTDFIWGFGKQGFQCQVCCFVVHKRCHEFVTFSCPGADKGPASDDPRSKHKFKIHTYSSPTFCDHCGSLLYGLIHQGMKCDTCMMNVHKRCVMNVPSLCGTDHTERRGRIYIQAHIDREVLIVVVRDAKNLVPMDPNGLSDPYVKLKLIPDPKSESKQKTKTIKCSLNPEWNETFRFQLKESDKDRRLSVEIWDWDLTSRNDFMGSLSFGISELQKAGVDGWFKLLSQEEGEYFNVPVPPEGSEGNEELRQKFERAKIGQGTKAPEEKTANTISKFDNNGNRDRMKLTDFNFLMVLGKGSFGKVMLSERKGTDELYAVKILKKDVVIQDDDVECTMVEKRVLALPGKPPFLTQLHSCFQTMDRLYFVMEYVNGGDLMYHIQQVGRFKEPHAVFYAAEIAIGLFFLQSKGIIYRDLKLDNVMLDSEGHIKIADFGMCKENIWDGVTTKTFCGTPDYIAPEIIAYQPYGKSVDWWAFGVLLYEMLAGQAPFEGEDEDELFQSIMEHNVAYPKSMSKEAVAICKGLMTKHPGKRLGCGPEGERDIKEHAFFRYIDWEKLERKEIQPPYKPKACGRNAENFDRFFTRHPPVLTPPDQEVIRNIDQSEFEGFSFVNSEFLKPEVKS
Protocol: (§1) For activity experiments COS7 cells were co-transfected with the indicated mCherry-tagged PKC construct and CKAR. For Kinameleon experiments, the indicated Kinameleon construct containing mYFP and mCFP was transfected alone. For translocation experiments, COS7 cells were co-transfected with the indicated mYFPtagged construct and plasma-membrane targeted mCFP at a ratio of 10:1. Baseline images were acquired every 15 s for 2 min prior to ligand addition. F6rster resonance energy transfer (FRET) ratios represent mean±SEM from at least three independent experiments.
(§2) All data were normalized to the baseline FRET ratio of each individual cell unless noted that absolute FRET ratio was plotted or traces were normalized to levels post-inhibitor addition. […] Every experiment contained an mCherry-transfected control to measure endogenous activity, and an mCherry-tagged WT (or deleted pseudosubstrate) PKC. Control traces are depicted as dotted lines: specifically, the endogenous trace in FIG. 1E and the deleted pseudosubstrate trace in FIGS. 2G and 31, were redrawn to serve as a point of reference in those figures (data were acquired and derived in the same experiments which generated all the data in FIGS. 1A-1E and FIGS. 2A-2G, respectively).

WT PKCβII = WT PKCβII (Rattus norvegicus, UniProt P68403); settings: COS7 cells, PDBu 200 nM
Sequence of WT PKCβII (P68403 1-673 isoform P68403-2): as above
Protocol: as §1, §2

`COC[C@@H]([C@H](O)[C@H](O)C(=O)NCC[C@H](C)c1nc(/C=C/C[C@@H]2O[C@]3(C[C@@H](O)[C@@H]2C)O[C@H]([C@H](C[C@H](O)[C@H](C)[C@H](O)[C@H](C)/C=C(C)/C(C)=C/C=C/C(C)=C\C#N)OC)[C@H](OP(=O)(O)O)C3(C)C)co1)N(C)C` [Calyculin A] was tested, and the “rescue of phosphorylation at the three priming sites of pseudosubstrate-deleted PKC” value [1] was “could not be rescued”.
For `O=c1ccn([C@@H]2O[C@H](COP(=O)(O)OP(=O)(O)OP(=O)(O)O)[C@@H](O)[C@H]2O)c(=O)[nH]1` [UTP, uridine triphosphate], the “activation of WT PKCa and PKCβII (CKAR)” value (PKCβII) was “activated”.
`CCCC(=O)O[C@@H]1[C@@H](C)[C@@]2(O)[C@@H](C=C(CO)C[C@]3(O)C(=O)C(C)=C[C@@H]23)[C@@H]2C(C)(C)[C@]12OC(=O)CCC` [PDBu, Phorbol 12,13-dibutyrate] was tested, and the CKAR phosphorylation (PKCβII; COS7 cells expressing WT PKC or turn motif mutant (T641A), PDBu 200 nM) was “robust increase in CKAR phosphorylation”, the “activation of WT PKCa and PKCβII (CKAR)” value (PKCβII) was “activated” and the “FRET ratio of Kinameleon reporter” value (WT PKCβII) was “increase in FRET ratio”.
